Measured values as given in patent US20100062969A1, “HYDROPHILIC POLYMER-CONJUGATED LIPIDS FOR PEPTIDE AND PROTEIN FOLDING DISORDERS” (priority 2006, published 2010).

How the values were obtained:
[1] = α-Helicity of VIP by circular dichroism; assay type: physicochemical
Procedure: (§1) • Lipid:peptide saturation ratio and number of peptide/micelle were determined via fluorescent spectroscopy where 10 μM of VIP was incubuated with varying concentration of SSM or SSMM to achieve lipid:peptide molar ratio ranging from 0 to 40. The data was then fitted into a simple, rectangular hyperbola curve using SigmaPlot® to determine lipid:peptide saturation ratio. The maximum number of peptide molecules that could interact with each micelle was calculated from the aggregation number of lipid monomers per micelle (˜90) for both SSM and SSMM (Ashok B, et al. J Pharm Sci 2004; 93: 2476-2487). • α-helicity was determined by CD using 20 μM of VIP in 5 mM of SSM or SSMM (lipid:VIP ratio of 250:1). The same samples were used for particle size measurement. • Fluorescent anisotropy was conducted using 100 μM of VIP in 4.5 mM of SSM or SSMM (lipid:VIP ratio of 45:1) which is close to the lipid:peptide saturation ratio. The measurements were done using Perkin Elmer luminescence spectrometer LS50B.

[2] = Circulating half life of VIP in vivo; details: read-out: Circulating t½ in vivo (converted)
[3] = Stability of VIP and VIP-SSM in human serum; details: buffer or solvent
Procedure: Since VIP is highly susceptible to enzymatic hydrolysis in serum, we have also tested serum stability of SSM-VIP formulation in a surrogate in vitro system. Briefly, DSPE-PEG2000 (5 mM) was weighed and hydrated (10 mM HEPES buffer, pH 7.4). VIP (5 nmol) was added to preformed SSM and incubated for 2 h at 25° C. to form VIP-SSM. Formulation was then incubated in human serum (25, 50% v/v). Sample aliquots were removed and analyzed on 0, 1, 3, 5 and 7 days following storage at 37° C. These samples were analyzed for the % of intact VIP associated with SSM following separation of unbound VIP from SSM.

[4] = Fluorescent anisotropy of VIP; assay type: physicochemical; details: 100 μM VIP, […] SSM or SSMM (lipid:VIP 45:1)
Procedure: as §1

SMILES: CC[C@H](C)[C@H](NC(=O)[C@H](CO)NC(=O)[C@H](CC(N)=O)NC(=O)[C@H](CC(C)C)NC(=O)[C@H](Cc1ccc(O)cc1)NC(=O)[C@H](CCCCN)NC(=O)[C@H](CCCCN)NC(=O)[C@@H](NC(=O)[C@H](C)NC(=O)[C@H](CCSC)NC(=O)[C@H](CCC(N)=O)NC(=O)[C@H](CCCCN)NC(=O)[C@H](CCCNC(=N)N)NC(=O)[C@H](CC(C)C)NC(=O)[C@H](CCCNC(=N)N)NC(=O)[C@@H](NC(=O)[C@H](Cc1ccc(O)cc1)NC(=O)[C@H](CC(N)=O)NC(=O)[C@H](CC(=O)O)NC(=O)[C@@H](NC(=O)[C@H](Cc1ccccc1)NC(=O)[C@@H](NC(=O)[C@H](C)NC(=O)[C@H](CC(=O)O)NC(=O)[C@H](CO)NC(=O)[C@@H](N)Cc1c[nH]cn1)C(C)C)[C@@H](C)O)[C@@H](C)O)C(C)C)C(=O)N[C@@H](CC(C)C)C(=O)N[C@@H](CC(N)=O)C(N)=O [VIP in saline, vasoactive intestinal peptide]
- % α-Helix of VIP [1]: 5 ± 1%
- half-life [2]: 18 min
- metabolised at 24 h [3]: ~65%
- Anisotropy [4]: 0.052 ± 0.004
